Test [1] concerns the target T1, APOL1 G2 (Homo sapiens, UniProt O14791, DEL388-389).
T1 construct: expressed in transfected cells; host or cells: HEK293/T-REx APOL1 G2 clone #2, doxycycline-inducible
T1 sequence (O14791 with tags, fused parts or gaps DEL388-389): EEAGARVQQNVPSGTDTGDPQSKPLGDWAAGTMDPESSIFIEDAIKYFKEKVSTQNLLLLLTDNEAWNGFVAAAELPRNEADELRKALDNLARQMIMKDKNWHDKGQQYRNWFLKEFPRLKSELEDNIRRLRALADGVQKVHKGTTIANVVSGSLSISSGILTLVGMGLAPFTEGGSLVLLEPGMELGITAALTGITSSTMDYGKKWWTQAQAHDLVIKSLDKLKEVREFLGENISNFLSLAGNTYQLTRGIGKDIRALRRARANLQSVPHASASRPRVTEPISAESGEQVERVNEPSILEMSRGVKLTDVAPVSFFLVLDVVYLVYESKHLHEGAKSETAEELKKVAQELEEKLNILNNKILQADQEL
Briefly: APOL1 G2 HEK293 rescue of cell death caused by overexpression of APOL1 (CellTiter-Glo). The conditions noted are these: HEK293/T-REx APOL1 G2 clone #2, doxycycline induction, 17 hours, CellTiter-Glo luminescence; reversal of cell death; geometric mean of at least 2 assay runs. The test is classed as cell-based. Put shortly: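 Viability read by CellTiter-Glo luminescence after 17 h, 37 °C, in HEK293/T-REx cells expressing APOL1 G2 on 6 ng/mL doxycycline, 5,000 cells/well. Compounds tested as duplicate 8-point, 3-fold dilutions, 0.5% DMSO final; four-parameter logistic EC50, usually geometric mean of ≥2 days.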

The target of test [2] is T1, APOL1 G2. Briefly: APOL1 G2 FLIPR calcium influx assay (HEK T-REx/GCaMP6f/APOL1 G2 K6.3 cells). The test is classed as cell-based. The conditions noted are these: HEK293 clone expressing GCaMP6f, doxycycline-induced APOL1 G2; prevention of calcium influx; geometric mean of at least 2 assay runs. Put shortly:
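Cells express GCaMP6f stably and APOL1 G2 after a 6 h doxycycline induction. Duplicate 8-point dilutions sit 10 min at room temperature in Ca2+-free Tyrode's (pH 7.4), then Ca2+ is injected to 5 mM final and the FLIPR signal recorded. AC50s are geometric means across ≥2 days.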

Some results are limits rather than exact numbers.

23 molecules from US20260055083A1, “APOL1 INHIBITORS AND METHODS OF USE” (Maze Therapeutics, Inc., priority 2022, published 2026) can be followed below.

Take `C[C@@H]1C[C@H](COc2ccc(S(C)(=O)=O)cn2)CN1CCc1cc(Cl)cc(C#N)c1` [Compound 12, 3-chloro-5-{2-[(2R,4S)-4-{[(5-methanesulfonylpyridin-2-yl)oxy]methyl}-2-methylpyrrolidin-1-yl]ethyl}benzonitrile]: the concentration for a half-maximal effect (EC50) on APOL1 G2 [1] stood at 99.2 nM. The AC50 on APOL1 G2 [2] worked out at 279 nM.

Consider `C[C@@H]1CN(CCc2cc(Cl)cc(C#N)c2)C[C@H]1COc1ccc(S(=O)(=O)C2(C)COC2)cc1` [Compound 13, 3-chloro-5-{2-[(3S,4S)-3-methyl-4-({4-[(3-methyloxetan-3-yl)sulfonyl]phenoxy}methyl)pyrrolidin-1-yl]ethyl}benzonitrile], for which the EC50 at APOL1 G2 [1] is 41.4 nM. The AC50 at APOL1 G2 [2] was found to be 290 nM.

Regarding `C[C@@H]1CN(C2CCc3ccc(Cl)cc3C2)C[C@H]1COc1ccc(S(C)(=O)=O)cc1` (stereo partly drawn) [Compound 14, (3S,4S)-1-[7-chloro-1,2,3,4-tetrahydronaphthalen-2-yl]-3-[(4-methanesulfonylphenoxy)methyl]-4-methylpyrrolidine], the 50% effective concentration (EC50) on APOL1 G2 [1] is 544 nM. In addition, on APOL1 G2 [2], the concentration at half-maximal activity (AC50) came to 767 nM.

With `CC(Cc1cc(Cl)cc(C#N)c1)N1C[C@@H](COc2ccc(S(C)(=O)=O)cc2)[C@H](C)C1` (stereo partly drawn) [Compound 17, 3-chloro-5-[2-[(3S,4S)-3-[(4-methanesulfonylphenoxy)methyl]-4-methylpyrrolidin-1-yl]propyl]benzonitrile], the EC50 at APOL1 G2 [1] came to 527 nM. Further, the AC50 on APOL1 G2 [2] came to 380 nM.

For `C[C@@H]1CN(CCc2cccc(C#N)c2)C[C@H]1COc1cnc(S(C)(=O)=O)cn1` [Compound 20, 3-{2-[(3S,4S)-3-{[(5-methanesulfonylpyrazin-2-yl)oxy]methyl}-4-methylpyrrolidin-1-yl]ethyl}benzonitrile], at APOL1 G2 [1], the EC50 is 1120 nM. Besides, the AC50 on APOL1 G2 [2] was 776 nM.

`CS(=O)(=O)c1ccc(OC[C@@H]2CN(CCc3cccc(Cl)c3)C[C@H]2CO)cc1` [Compound 21, [(3S,4S)-1-[2-(3-chlorophenyl)ethyl]-4-[(4-methanesulfonylphenoxy)methyl]pyrrolidin-3-yl]methanol]: the EC50 at APOL1 G2 [1] turned out to be 280 nM. Further, the AC50 on APOL1 G2 [2] is 138 nM.

For the molecule `CS(=O)(=O)c1ccc(OC[C@H]2CN(CCc3cccc(Cl)c3)C[C@@H]2CO)cc1` [Compound 22, [(3R,4R)-1-[2-(3-chlorophenyl)ethyl]-4-[(4-methanesulfonylphenoxy)methyl]pyrrolidin-3-yl]methanol], the EC50 on APOL1 G2 [1] is above 18800 nM. The AC50 at APOL1 G2 [2] amounted to 1560 nM.

As for `Cc1c(C#N)cc(Cl)cc1CCN1C[C@@H](CO)[C@H](COc2ccc(S(C)(=O)=O)cc2)C1` [Compound 23, 5-chloro-3-{2-[(3S,4S)-3-(hydroxymethyl)-4-[(4-methanesulfonylphenoxy)methyl]pyrrolidin-1-yl]ethyl}-2-methylbenzonitrile], the EC50 on APOL1 G2 [1] amounted to 309 nM. Besides, the AC50 at APOL1 G2 [2] turned out to be 392 nM.

In the case of `CS(=O)(=O)c1ccc(OC[C@@H]2CN(CCc3cc(Cl)cc(C#N)c3)C[C@H]2CO)cc1` [Compound 24, 3-chloro-5-{2-[(3S,4S)-3-(hydroxymethyl)-4-[(4-methanesulfonylphenoxy)methyl]pyrrolidin-1-yl]ethyl}benzonitrile], at APOL1 G2 [1], the EC50 is 410 nM. Besides, the AC50 at APOL1 G2 [2] came to 310 nM.

For `CS(=O)(=O)c1ccc(OC[C@@H]2CN(CCc3cccc(C#N)c3)C[C@H]2CO)cc1` [Compound 25, 3-{2-[(3S,4S)-3-(hydroxymethyl)-4-[(4-methanesulfonylphenoxy)methyl]pyrrolidin-1-yl]ethyl}benzonitrile], the concentration for a half-maximal effect (EC50) on APOL1 G2 [1] worked out at 1010 nM. Besides, the concentration at half-maximal activity (AC50) at APOL1 G2 [2] was found to be 343 nM.

Turning to `C[C@@H]1C[C@H](COc2ccc(S(C)(=O)=O)nn2)CN1CCc1cccc(C#N)c1` [Compound 26, 3-{2-[(2R,4S)-4-{[(6-methanesulfonylpyridazin-3-yl)oxy]methyl}-2-methylpyrrolidin-1-yl]ethyl}benzonitrile], the EC50 on APOL1 G2 [1] turned out to be 276 nM. On APOL1 G2 [2], the AC50 stood at 210 nM.

`C[C@@H]1C[C@H](COc2ccc(S(C)(=O)=O)nc2)CN1CCc1cc(C#N)cc(C#N)c1` [Compound 39, 5-{2-[(2R,4S)-4-{[(6-methanesulfonylpyridin-3-yl)oxy]methyl}-2-methylpyrrolidin-1-yl]ethyl}benzene-1,3-dicarbonitrile]: at APOL1 G2 [1], the EC50 worked out at 121 nM. For the same molecule, the AC50 at APOL1 G2 [2] is 554 nM.

As for `C[C@@H]1C[C@H](COc2ccc(S(=O)(=O)CCCS(C)(=O)=O)cc2)CN1C1CCc2c(C#N)cccc2C1` (stereo partly drawn) [Compound 40, 6-[(2R,4S)-4-{[4-(3-methanesulfonylpropanesulfonyl)phenoxy]methyl}-2-methylpyrrolidin-1-yl]-5,6,7,8-tetrahydronaphthalene-1-carbonitrile], the EC50 at APOL1 G2 [1] is 74.6 nM. Moreover, the AC50 at APOL1 G2 [2] was 534 nM.

In the case of `C[C@@H]1C[C@H](COc2ccc(S(=O)(=O)CCCS(C)(=O)=O)cc2)CN1C1CCc2c(C#N)cc(Cl)cc2C1` (stereo partly drawn) [Compound 43, 3-chloro-6-[(2R,4S)-4-{[4-(3-methanesulfonylpropanesulfonyl)phenoxy]methyl}-2-methylpyrrolidin-1-yl]-5,6,7,8-tetrahydronaphthalene-1-carbonitrile], at APOL1 G2 [1], the EC50 is 350 nM. At APOL1 G2 [2], the AC50 was 1360 nM.

Take `C[C@@H]1C[C@H](COc2ccc(S(=O)(=O)CCS(C)(=O)=O)cc2)CN1C1CCc2c(C#N)cc(Cl)cc2C1` (stereo partly drawn) [Compound 46, 3-chloro-6-[(2R,4S)-4-{[4-(2-methanesulfonylethanesulfonyl)phenoxy]methyl}-2-methylpyrrolidin-1-yl]-5,6,7,8-tetrahydronaphthalene-1-carbonitrile]: the EC50 at APOL1 G2 [1] came to 418 nM. Moreover, at APOL1 G2 [2], the AC50 was determined as 1610 nM.

In the case of `C[C@@H]1C[C@H](COc2ccc(S(=O)(=O)CCS(C)(=O)=O)cc2)CN1C1CCc2ccc(Cl)cc2C1` (stereo partly drawn) [Compound 49, (2R,4S)-1-[7-chloro-1,2,3,4-tetrahydronaphthalen-2-yl]-4-{[4-(2-methanesulfonylethanesulfonyl)phenoxy]methyl}-2-methylpyrrolidine], the EC50 on APOL1 G2 [1] is 193 nM. In addition, the AC50 on APOL1 G2 [2] was 558 nM.

Regarding `C[C@@H]1C[C@H](COc2ccc(S(=O)(=O)CCCS(C)(=O)=O)cc2)CN1C1CCc2ccc(Cl)cc2C1` (stereo partly drawn) [Compound 52, (2R,4S)-1-[7-chloro-1,2,3,4-tetrahydronaphthalen-2-yl]-4-{[4-(3-methanesulfonylpropanesulfonyl)phenoxy]methyl}-2-methylpyrrolidine], the concentration for a half-maximal effect (EC50) on APOL1 G2 [1] is 86.9 nM. For the same molecule, at APOL1 G2 [2], the AC50 was 1020 nM.

Take `C[C@@H]1C[C@H](COc2ccc(S(=O)(=O)CCO)cc2)CN1C1CCc2c(C#N)cc(Cl)cc2C1` (stereo partly drawn) [Compound 55, 3-chloro-6-[(2R,4S)-4-{[4-(2-hydroxyethanesulfonyl)phenoxy]methyl}-2-methylpyrrolidin-1-yl]-5,6,7,8-tetrahydronaphthalene-1-carbonitrile]: the EC50 on APOL1 G2 [1] came to 240 nM. Further, the AC50 on APOL1 G2 [2] was 876 nM.

`C[C@@H]1C[C@H](COc2ccc(S(=O)(=O)CCO)cc2)CN1C1CCc2ccc(C#N)cc2C1` (stereo partly drawn) [Compound 58, 7-[(2R,4S)-4-{[4-(2-hydroxyethanesulfonyl)phenoxy]methyl}-2-methylpyrrolidin-1-yl]-5,6,7,8-tetrahydronaphthalene-2-carbonitrile]: at APOL1 G2 [1], the EC50 turned out to be 43.5 nM. Moreover, on APOL1 G2 [2], the AC50 turned out to be 581 nM.

For the molecule `C[C@@H]1C[C@H](COc2ccc(S(=O)(=O)CCO)cc2)CN1C1CCc2ccc(Cl)cc2C1` (stereo partly drawn) [Compound 61, 2-(4-{[(3S,5R)-1-[7-chloro-1,2,3,4-tetrahydronaphthalen-2-yl]-5-methylpyrrolidin-3-yl]methoxy}benzenesulfonyl)ethan-1-ol], the EC50 at APOL1 G2 [1] was determined as 63.3 nM. Moreover, the concentration at half-maximal activity (AC50) at APOL1 G2 [2] was found to be 698 nM.

With `C[C@@H]1C[C@H](COc2ccc(S(C)(=O)=O)nc2)CN1CCc1cccc(C#N)c1` [Compound 64, 3-{2-[(2R,4S)-4-{[(6-methanesulfonylpyridin-3-yl)oxy]methyl}-2-methylpyrrolidin-1-yl]ethyl}benzonitrile], at APOL1 G2 [1], the EC50 is 50.9 nM. In addition, the AC50 at APOL1 G2 [2] was 287 nM.

As for `C[C@@H]1C[C@H](COc2ccc(S(C)(=O)=O)nc2)CN1CCc1cc(Cl)cc(C#N)c1` [Compound 65, 3-chloro-5-{2-[(2R,4S)-4-{[(6-methanesulfonylpyridin-3-yl)oxy]methyl}-2-methylpyrrolidin-1-yl]ethyl}benzonitrile], at APOL1 G2 [1], the EC50 was found to be 49.8 nM. For the same molecule, the AC50 on APOL1 G2 [2] turned out to be 346 nM.

As for `CC(=O)N(C)CCS(=O)(=O)c1ccc(OC[C@H]2C[C@@H](C)N(CCc3cc(Cl)cc(C#N)c3)C2)cc1` [Compound 66, N-[2-(4-{[(3S,5R)-1-[2-(3-chloro-5-cyanophenyl)ethyl]-5-methylpyrrolidin-3-yl]methoxy}benzenesulfonyl)ethyl]-N-methylacetamide], the EC50 on APOL1 G2 [1] came to 76.8 nM. Also, at APOL1 G2 [2], the AC50 turned out to be 621 nM.
